What is called EC50 is the concentration giving half of the maximal effect.

The subject of one test is primary neurons. Kind of test: CellTiter-Glo luminescence-based ATP assay. It counts as cell-based, mouse. As to conditions: for ATP: ATP orthogonal screen, 24 h; for EC50 / Emax: Mus musculus, Primary neuron, dose response; for EC50: 15 concentrations from 6 nM to 100 uM; for Emax: maximal percent increase relative to in-plate DMSO controls, read-out: ATP (Effect-size). In outline:
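Primary neurons treated from DIV13 for 24 h with compound or DMSO. After part of the medium was removed, CellTiter-Glo reagent was added; plates were shaken 10 min at 200 rpm, kept 2 min in the dark at room temperature, and luminescence read as total ATP.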

In test [1] the test system is primary forebrain neurons. Kind of test: cells. To be noted: 24 h; for EC50: Mus musculus, Neuron; for Dendritic Mt CA / Neurite Area: rescreen, 12.5 μM, vs DMSO wells.
[2] abbreviates: read-out: Elongation (Dend Mt length) EC50.
[3] abbreviates: read-out: Health (Ax Mt Circularity) EC50.
[4] abbreviates: read-out: Mt Content (Dend Mt CA) EC50.
Setting [5] is: read-out: Sprouting (Neurite Area) EC50.

Counter-ions that a name gives are not always drawn. Like-named read-outs stand apart in the source and are kept apart here.

`COC(=O)[C@@H]1[C@H]2C[C@H]3c4[nH]c5ccccc5c4CCN3C[C@@H]2CC[C@@H]1O` [YOHIMBINE HYDROCHLORIDE]: the ATP in the test with primary neurons came out at 3.11 Z-scores. The EC50 worked out at 270 nM in the test on primary neurons; 200 nM in test [1] (setting [2]); 1300 nM in test [1] (setting [3]); 10 nM in test [1] (setting [4]); 1700 nM in test [1] (setting [5]). Further, the Emax with primary neurons came out at 23.6%. Further, the “Dendritic Mt CA” value in test [1] was 3.44 robust Z-scores. In addition, the “Neurite Area” value in test [1] came out at 2.50 robust Z-scores.
In the test with primary neurons, `CCCCOc1ccc(C(=O)CCN2CCCCC2)cc1` [DYCLONINE HYDROCHLORIDE] gave an ATP of 7.04 Z-scores. Besides, the EC50 with primary neurons was 140 nM; in test [1] (setting [2]) it was 1500 nM; in test [1] (setting [3]), 200 nM; in test [1] (setting [4]), 200 nM; in test [1] (setting [5]), > 25000 nM. Further, the Emax with primary neurons was determined as 20.7%. In addition, the “ATP production in neurons” value in the test with primary neurons (after 24 hr of treatment) is “increased”. For the same molecule, the “Dendritic Mt CA” value in test [1] is reported as 3.89 robust Z-scores. Also, the “Neurite Area” value in test [1] was found to be 0.33 robust Z-scores.
Consider `O=c1c(-c2ccc(O)cc2)coc2cc(O)cc(O)c12` [GENISTEIN], for which, in the test on primary neurons, the ATP is listed as 5.96 Z-scores, a half-maximal response (EC50) required 3000 nM and the Emax amounted to 20.6%. In test [1], the “Dendritic Mt CA” value turned out to be 2.93 robust Z-scores and the “Neurite Area” value is listed as 0.34 robust Z-scores.
